Measurements taken from PubChem BioAssay (NCI).
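Step 1: Grow cells in 96-well plates. Step 2: Expose to compound for 48 hours at 5 concentrations. Step 3: Interpolate endpoints linearly; if unreached, use highest concentration. GI50 = concentration required for 50% inhibition of growth. TGI: total growth inhibition.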

Assays:
Assay in all cases: NCI anticancer screen, dose series, 48 h
[1] = test system: OVCAR-3 ovarian
[2] = test system: HCT-15 colon
[3] = test system: SK-MEL-28 melanoma
[4] = test system: OVCAR-8 ovarian
[5] = test system: SF-268 CNS
[6] = test system: A549 NSCLC
[7] = test system: OVCAR-4 ovarian
[8] = test system: RXF 393 renal
[9] = test system: UACC-62 melanoma
[10] = test system: M14 melanoma

Row | Compound | TGI [1] [µM] | TGI [2] [µM] | TGI [3] [µM] | TGI [4] [µM] | TGI [5] [µM] | TGI [6] [µM] | TGI [7] [µM] | TGI [8] [µM] | TGI [9] [µM] | TGI [10] [µM] | GI50 [2] [nM] | GI50 [3] [nM] | GI50 [10] [nM] | GI50 [4] [nM] | GI50 [5] [nM] | GI50 [6] [nM] | GI50 [8] [nM] | GI50 [9] [µM] | GI50 [1] [nM] | GI50 [7] [nM]
1 | O=C(O)C1CCC(=O)N1S(=O)(=O)c1ccccc1 (configuration not stated) | > 100 | > 100 | > 100 | > 100 | > 100 | > 100 | > 100 | > 100 | > 100 | – | – | – | – | – | – | – | – | – | – | –
2 | CC(=O)C=NCC(=O)O | > 100 | > 100 | > 100 | > 100 | > 100 | > 100 | > 100 | > 100 | > 100 | > 100 | – | – | – | – | – | – | – | – | – | –
3 | CC(=O)OCC1=C(C(=O)O)C(c2ccc3c(c2)OCO3)c2cc3c(cc2O1)OCO3 (configuration not stated) | > 100 | > 100 | > 100 | > 100 | – | > 100 | > 100 | > 100 | > 100 | > 100 | – | – | – | – | – | – | – | – | – | –
4 | O=C(Nc1c(C(=O)NC2CCCCC2)[nH]c(=O)[nH]c1=O)c1ccc(Cl)cc1 | > 100 | > 100 | > 100 | > 100 | > 100 | > 100 | > 100 | > 100 | > 100 | > 100 | – | – | – | – | – | – | – | – | – | –
5 | CCCC(N)C(=O)c1ccccc1 (configuration not stated) | > 100 | > 100 | > 100 | > 100 | > 100 | > 100 | > 100 | > 100 | > 100 | > 100 | – | – | – | – | – | – | – | – | – | –
6 | COc1ccc(-c2nn(-c3cccc(NC(=O)Nc4ccccc4)c3)cc2-c2ccncc2)cc1Cl | – | 4.98 | 7.16 | 7.18 | 7 | 4.99 | – | 6.47 | > 100 | 4.85 | 1960 | 2620 | 2260 | 2510 | 2600 | 2110 | 1970 | 3.05 | – | –
7 | c1ccc(N=c2nc(N3CCOCC3)ss2)cc1 | – | 29 | 32.1 | 28.3 | 31.1 | > 100 | 29.1 | 31.3 | 27.5 | 27.9 | – | – | – | – | – | – | – | – | – | –
8 | Fc1ccc(-c2nn3c(-c4cc(C(F)(F)F)cc(C(F)(F)F)c4)nnc3s2)cc1 | 2.42 | > 50 | – | > 50 | > 50 | – | > 50 | > 50 | > 50 | > 50 | > 50000 | – | > 50000 | 1770 | 3030 | – | 1780 | > 50 | 1160 | 1480
9 | CC(=O)O[C@H]1C=CC(=O)C(C)CC1C (some centres not stated) | > 100 | – | > 100 | – | > 100 | > 100 | > 100 | > 100 | > 100 | > 100 | – | – | – | – | – | – | – | – | – | –
10 | Clc1ccc(CNc2nc(Cl)c3[nH]cnc3n2)cc1Cl | > 100 | > 100 | – | 99.2 | 81.8 | > 100 | > 100 | > 100 | > 100 | 70.3 | – | – | – | – | – | – | – | – | – | –
11 | N#CC(Nc1cccc(C(F)(F)F)c1)c1ccccc1C(F)(F)F (configuration not stated) | 16.3 | 17.8 | 31.8 | 33 | 32.2 | 29.3 | 15.2 | 24.8 | 31.4 | 17.6 | – | – | – | – | – | – | – | – | – | –
12 | CCOc1ccc(/C(C=O)=C(\Cl)c2ccc(OC)c(OC)c2)cc1 | > 100 | > 100 | > 100 | > 100 | > 100 | – | – | – | > 100 | > 100 | – | – | – | – | – | – | – | – | – | –
13 | CCC(=O)NC(Nc1cccc(F)c1)(C(F)(F)F)C(F)(F)F | > 100 | > 100 | > 100 | > 100 | > 100 | > 100 | > 100 | > 100 | > 100 | > 100 | – | – | – | – | – | – | – | – | – | –
14 | O=C(Nc1ccc(Sc2ccc(N=Nc3c(O)c(S(=O)(=O)O)cc4cc(S(=O)(=O)O)ccc34)cc2)cc1)c1ccc(N=Nc2c(O)ccc3c(S(=O)(=O)O)cc(S(=O)(=O)O)cc23)cc1 | 92.5 | > 100 | > 100 | > 100 | > 100 | > 100 | > 100 | > 100 | 49.7 | 66.2 | – | – | – | – | – | – | – | – | – | –
15 | Cc1cc2c(C(C)C)c(O)c(O)c(C=NCCO)c2c(O)c1-c1c(C)cc2c(C(C)C)c(O)c(O)c(C=NCCO)c2c1O | 5.79 | 2.9 | 3.66 | 21.9 | 3.1 | 2.98 | 16.3 | 9.51 | 6.15 | 3.58 | – | – | – | – | – | – | – | – | – | –
16 | NC1(C(=O)O)CCc2ccc(N(CCCl)CCCl)cc2C1 (configuration not stated) | > 100 | > 100 | > 100 | > 100 | 87 | > 100 | > 100 | > 100 | > 100 | – | – | – | – | – | – | – | – | – | – | –
